{
  "source": "patent US8772268B2",
  "about": "“Bisphosphonamidate prodrugs and uses thereof” (The Johns Hopkins University, priority 2010, dated 2014)",
  "assay_type_in_all_cases": "cell-based",
  "key": {"L1210": {"system": "L1210", "experiment": "Cytotoxicity, L1210"}, "SF-295": {"system": "SF-295", "experiment": "NCI-60 DTP Human Tumor Cell Line Screen", "conditions": "SF-295, CNS Cancer, 48 h"}, "786-0": {"system": "786-0", "experiment": "NCI-60 DTP Human Tumor Cell Line Screen", "conditions": "786-0, Renal Cancer, 48 h"}, "UACC-257": {"system": "UACC-257", "experiment": "NCI-60 DTP Human Tumor Cell Line Screen", "conditions": "UACC-257, Melanoma, 48 h"}, "MCF7": {"system": "MCF7", "experiment": "NCI-60 DTP Human Tumor Cell Line Screen", "conditions": "MCF7, Breast Cancer, 48 h"}, "HT29": {"system": "HT29", "experiment": "NCI-60 DTP Human Tumor Cell Line Screen", "conditions": "HT29, Colon Cancer, 48 h"}, "MDA-MB-231/ATCC": {"system": "MDA-MB-231/ATCC", "experiment": "NCI-60 DTP Human Tumor Cell Line Screen", "conditions": "Breast Cancer, 48 h"}, "NCI/ADR-RES": {"system": "NCI/ADR-RES", "experiment": "NCI-60 DTP Human Tumor Cell Line Screen", "conditions": "Ovarian Cancer, 48 h"}, "BT-549": {"system": "BT-549", "experiment": "NCI-60 DTP Human Tumor Cell Line Screen", "conditions": "BT-549, Breast Cancer, 48 h"}, "SF-539": {"system": "SF-539", "experiment": "NCI-60 DTP Human Tumor Cell Line Screen", "conditions": "SF-539, CNS Cancer, 48 h"}, "LOX IMVI": {"system": "LOX IMVI", "experiment": "NCI-60 DTP Human Tumor Cell Line Screen", "conditions": "Melanoma, 48 h"}, "T-47D": {"system": "T-47D", "experiment": "NCI-60 DTP Human Tumor Cell Line Screen", "conditions": "Breast Cancer, 48 h"}, "[1]": {"system": "PIP3 (prostate) cancer cell line", "experiment": "MTS cell proliferation assay, PIP3", "procedure": "Cell proliferation was determined using the CellTiter 96 Aqueous One Solution Cell Proliferation Assay MTS assay. A549 NSCLC cells were plated at 1.5×10^3 cells per well in flat bottom 96 well plates in 99 μL of media and allowed to adhere overnight. The drugs were serially diluted in 100% DMSO. For each drug treatment group, 1 μL of a 100× stock solution was added to each well for a final DMSO concentration of 1%. Cells were treated for 24, 48 or 72 hours. Cells were incubated with MTS dye (20 μL well^−1) for 40 min to 2 h. Absorbance at 490 nm was determined using a SpectraMax M2 (Molecular Devices) plate reader. The percent cell proliferation was calculated by converting the experimental absorbance to percentage of control, which was then plotted vs. drug concentration. The IC50 values were determined using a non-linear dose-response analysis in GraphPad Prism version 4.0. The IC50 is defined as the concentration of drug needed to cause a 50% decrease in proliferation compared to vehicle control.\nThe activity of Clodronate prodrug (14) was tested against other cell lines, include prostate (PIP3) and breast (MDA-MB-453) cancer cells lines. Cell proliferation was determined using the CellTiter 96 Aqueous One Solution Cell Proliferation Assay MTS assay as discussed above. Results are shown in FIG. 22 and in the table below."}, "SNB-19": {"system": "SNB-19", "experiment": "NCI-60 DTP Human Tumor Cell Line Screen", "conditions": "SNB-19, CNS Cancer, 48 h"}, "SW-620": {"system": "SW-620", "experiment": "NCI-60 DTP Human Tumor Cell Line Screen", "conditions": "SW-620, Colon Cancer, 48 h"}, "NCI-H460": {"system": "NCI-H460", "experiment": "NCI-60 DTP Human Tumor Cell Line Screen", "conditions": "NCI-H460, Non-Small Cell Lung Cancer, 48 h"}, "U251": {"system": "U251", "experiment": "NCI-60 DTP Human Tumor Cell Line Screen", "conditions": "U251, CNS Cancer, 48 h"}, "PC-3": {"system": "PC-3", "experiment": "NCI-60 DTP Human Tumor Cell Line Screen", "conditions": "PC-3, Prostate Cancer, 48 h"}, "SR": {"system": "SR", "experiment": "NCI-60 DTP Human Tumor Cell Line Screen", "conditions": "Leukemia, 48 h"}, "MOLT-4": {"system": "MOLT-4", "experiment": "NCI-60 DTP Human Tumor Cell Line Screen", "conditions": "MOLT-4, Leukemia, 48 h"}, "HCC-2998": {"system": "HCC-2998", "experiment": "NCI-60 DTP Human Tumor Cell Line Screen", "conditions": "HCC-2998, Colon Cancer, 48 h"}, "TK-10": {"system": "TK-10", "experiment": "NCI-60 DTP Human Tumor Cell Line Screen", "conditions": "TK-10, Renal Cancer, 48 h"}, "HL-60(TB)": {"system": "HL-60(TB)", "experiment": "NCI-60 DTP Human Tumor Cell Line Screen", "conditions": "Leukemia, 48 h"}, "SK-MEL-5": {"system": "SK-MEL-5", "experiment": "NCI-60 DTP Human Tumor Cell Line Screen", "conditions": "SK-MEL-5, Melanoma, 48 h"}, "caspases 3/7": {"system": "caspases 3/7", "experiment": "Caspase Glo 3/7 assay", "conditions": "higher drug concentrations, by 48 hours", "procedure": "Caspase Glo 3/7 (Promega) assay was used to determine caspases 3/7 activation following treatment of cells with clodronate prodrug. Briefly, cells were treated with clodronate prodrug for 24, 48, or 72 h. Caspase glo 3/7 (Promega) reagent ([…]) was added to each well at 24, 48 or 72 h. The cells were then incubated at room temperature for 1 h, and the luminescence of each well was determined using a luminometer."}},
  "data": [
    {"smiles": "CN(CCCCCl)P(=O)(OCc1ccc([N+](=O)[O-])cc1)C(Cl)(Cl)P(=O)(OCc1ccc([N+](=O)[O-])cc1)N(C)CCCCCl", "note": "(stereo not drawn) [compound 14]", "values": [
      {"measurement": "IC50", "setting": "L1210", "value": "11.7 ± 1.78", "unit": "µM"},
      {"measurement": "Log10GI50", "setting": "SF-295", "value": "−5.61"},
      {"measurement": "Log10LC50", "setting": "SF-295", "value": ">−4.00"},
      {"measurement": "Log10TGI", "setting": "SF-295", "value": "−4.77"},
      {"measurement": "Log10GI50", "setting": "786-0", "value": "−5.28"},
      {"measurement": "Log10LC50", "setting": "786-0", "value": ">−4.00"},
      {"measurement": "Log10TGI", "setting": "786-0", "value": ">−4.00"},
      {"measurement": "Log10GI50", "setting": "UACC-257", "value": "−5.56"},
      {"measurement": "Log10LC50", "setting": "UACC-257", "value": ">−4.00"},
      {"measurement": "Log10TGI", "setting": "UACC-257", "value": "−5.10"},
      {"measurement": "Log10GI50", "setting": "MCF7", "value": "−5.47"},
      {"measurement": "Log10LC50", "setting": "MCF7", "value": ">−4.00"},
      {"measurement": "Log10TGI", "setting": "MCF7", "value": "−4.82"},
      {"measurement": "Log10GI50", "setting": "HT29", "value": "−5.48"},
      {"measurement": "Log10LC50", "setting": "HT29", "value": ">−4.00"},
      {"measurement": "Log10TGI", "setting": "HT29", "value": "−4.65"},
      {"measurement": "Log10GI50", "setting": "MDA-MB-231/ATCC", "value": "−5.51"},
      {"measurement": "Log10LC50", "setting": "MDA-MB-231/ATCC", "value": ">−4.00"},
      {"measurement": "Log10TGI", "setting": "MDA-MB-231/ATCC", "value": ">−4.00"},
      {"measurement": "Log10GI50", "setting": "NCI/ADR-RES", "value": "−5.58"},
      {"measurement": "Log10LC50", "setting": "NCI/ADR-RES", "value": ">−4.00"},
      {"measurement": "Log10TGI", "setting": "NCI/ADR-RES", "value": ">−4.00"},
      {"measurement": "Log10GI50", "setting": "BT-549", "value": "−5.50"},
      {"measurement": "Log10LC50", "setting": "BT-549", "value": ">−4.00"},
      {"measurement": "Log10TGI", "setting": "BT-549", "value": "−5.03"},
      {"measurement": "Log10GI50", "setting": "SF-539", "value": "−5.44"},
      {"measurement": "Log10LC50", "setting": "SF-539", "value": ">−4.00"},
      {"measurement": "Log10TGI", "setting": "SF-539", "value": ">−4.00"},
      {"measurement": "Log10GI50", "setting": "LOX IMVI", "value": "−5.75"},
      {"measurement": "Log10LC50", "setting": "LOX IMVI", "value": "−4.26"},
      {"measurement": "Log10TGI", "setting": "LOX IMVI", "value": "−5.33"},
      {"measurement": "Log10GI50", "setting": "T-47D", "value": "−5.27"},
      {"measurement": "Log10LC50", "setting": "T-47D", "value": ">−4.00"},
      {"measurement": "Log10TGI", "setting": "T-47D", "value": ">−4.00"},
      {"measurement": "EC50", "setting": "[1]", "value": 3, "unit": "µM"},
      {"measurement": "Log10GI50", "setting": "SNB-19", "value": "−5.30"},
      {"measurement": "Log10LC50", "setting": "SNB-19", "value": ">−4.00"},
      {"measurement": "Log10TGI", "setting": "SNB-19", "value": ">−4.00"},
      {"measurement": "Log10GI50", "setting": "SW-620", "value": "−5.27"},
      {"measurement": "Log10LC50", "setting": "SW-620", "value": ">−4.00"},
      {"measurement": "Log10TGI", "setting": "SW-620", "value": ">−4.00"},
      {"measurement": "Log10GI50", "setting": "NCI-H460", "value": "−5.42"},
      {"measurement": "Log10LC50", "setting": "NCI-H460", "value": ">−4.00"},
      {"measurement": "Log10TGI", "setting": "NCI-H460", "value": ">−4.00"},
      {"measurement": "Log10GI50", "setting": "U251", "value": "−5.45"},
      {"measurement": "Log10LC50", "setting": "U251", "value": ">−4.00"},
      {"measurement": "Log10TGI", "setting": "U251", "value": ">−4.00"},
      {"measurement": "Log10GI50", "setting": "PC-3", "value": "−5.44"},
      {"measurement": "Log10LC50", "setting": "PC-3", "value": ">−4.00"},
      {"measurement": "Log10TGI", "setting": "PC-3", "value": ">−4.00"},
      {"measurement": "Log10GI50", "setting": "SR", "value": "−5.43"},
      {"measurement": "Log10LC50", "setting": "SR", "value": ">−4.00"},
      {"measurement": "Log10TGI", "setting": "SR", "value": ">−4.00"},
      {"measurement": "Log10GI50", "setting": "MOLT-4", "value": "−5.53"},
      {"measurement": "Log10LC50", "setting": "MOLT-4", "value": ">−4.00"},
      {"measurement": "Log10TGI", "setting": "MOLT-4", "value": "−5.04"},
      {"measurement": "Log10GI50", "setting": "HCC-2998", "value": "−5.25"},
      {"measurement": "Log10LC50", "setting": "HCC-2998", "value": "−4.46"},
      {"measurement": "Log10TGI", "setting": "HCC-2998", "value": ">−4.00"},
      {"measurement": "Log10GI50", "setting": "TK-10", "value": "−5.35"},
      {"measurement": "Log10LC50", "setting": "TK-10", "value": ">−4.00"},
      {"measurement": "Log10TGI", "setting": "TK-10", "value": ">−4.00"},
      {"measurement": "Log10GI50", "setting": "HL-60(TB)", "value": "−5.39"},
      {"measurement": "Log10LC50", "setting": "HL-60(TB)", "value": ">−4.00"},
      {"measurement": "Log10TGI", "setting": "HL-60(TB)", "value": ">−4.00"},
      {"measurement": "Log10GI50", "setting": "SK-MEL-5", "value": "−5.69"},
      {"measurement": "Log10LC50", "setting": "SK-MEL-5", "value": "−5.05"},
      {"measurement": "Log10TGI", "setting": "SK-MEL-5", "value": "−5.37"},
      {"measurement": "caspases 3/7 activation", "setting": "caspases 3/7", "value": "Activation of caspases 3/7"}
    ]}
  ]
}
